From patent US20050037069A1, “Solid and stable creatine/citric acid composition(s) and compositions carbohydrate(s) or hydrates thereof, method for the production and use thereof” (priority 2002, published 2005)

Assay: Storage stability: creatinine (creatine decomposition product) content after storage
Assay type: physicochemical
Details: for Creatinine content / Observations: 40° C., 28 days
Description: A creatine-citric acid compound (3:1) (KC) as pure substance and mixtures of this compound (3:1) with 1, 5 and 10% by weight addition of a carbohydrate (CH) were stored for 28 days at 60° C. and then the contents of the creatine decomposition product creatinine were determined.

[1] = Addition: 1% by weight carbohydrate (CH)
[2] = Addition: 5% by weight carbohydrate (CH)
[3] = Addition: 10% by weight carbohydrate (CH)

CN(CC(=O)O)C(=N)N.CN(CC(=O)O)C(=N)N.CN(CC(=O)O)C(=N)N.O=C(O)CC(O)(CC(=O)O)C(=O)O [KC without CH, creatine-citric acid compound (3:1)]
Creatinine content [1]: 770 ppm
Observations [1]: white
Creatinine content [2]: 770 ppm
Observations [2]: white
Creatinine content [3]: 770 ppm
Observations [3]: white
creatinine content, initial data (reference substance before storage, limit of detection): < 67 ppm
